# Results: ChEMBL document CHEMBL6177984, “Pyrazolo[1,5-a]pyrimidine-Based Type-I Photosensitizer as an Efficient Pyroptosis Inducer for Tumor Ablation” (J Med Chem, 2025)
# Active and inactive are the calls of the source. The calls are words filed in the database; no cut-off is given here.
# Key:
# [1] = test system: MDA-MB-231; assay: Photocytotoxicity in human MDA-MB-231 cells assessed as cell viability preincubated with compound for 1 hr followed by light irradiated with 400 to 700 nm 100 mW/cm^2 for 10 mins and measured after 24 hrs by CCK-8 assay; type: functional, cell-based; conditions: MDA-MB-231, light or radiation study
# [2] = Dark cytotoxicity against human MDA-MB-231 cells assessed as cell viability incubated for 24 hrs by CCK8 assay; type: toxicity, cell-based
# [3] = test system: MDA-MB-231; assay: Dark cytotoxicity against human MDA-MB-231 cells assessed as cell viability at 1 uM incubated for 24 hrs by CCK8 assay; type: toxicity, cell-based; conditions: mda-mb-231, 24 h
# [4] = Induction of ROS generation in BPS buffer assessed as increase in superoxide anion radical level at 10 uM irradiated with 525 nm 20 mW/cm2 light by DHR123 probe based fluorescence spectra analysis; type: functional
Structure (SMILES),IC50 [1] [µM],IC50 at 24 h [2] [µM],Activity [3],Activity [4]
CC[n+]1c(/C=C/c2ccc(-c3cnn4ccc(N5CCOCC5)nc34)o2)sc2ccccc21,1.01,> 10,,
CC[n+]1ccc(/C=C/c2ccc(-c3cnn4ccc(N5CCOCC5)nc34)s2)c2ccccc21,0.92,> 10,,
CC[n+]1ccc(/C=C/c2ccc(-c3cnn4ccc(N5CCOCC5)nc34)s2)cc1.[Br-],> 10,> 10,Non-toxic,
COC(=O)c1ccccc1C1c2ccc(N)cc2Oc2cc(N)ccc21,,,,Active
